From patent US20160060209A1, “BIS A[…] COMPLEXES FOR X-RAY IMAGING” (BAYER PHARMA AKTIENGESELLSCHAFT üß, priority 2013, published 2016)

Assay: Stability of bis azainositol hafnium complexes in aqueous buffered solution on heat treatment (steam autoclave)
Type: physicochemical
Details: aqueous buffered solution pH 7.4, 5 mmol/L, 121° C. for 45 minutes in steam autoclave; HPLC peak area ratio x metal concentration ratio (ICP-OES)
Protocol: The stability of bis azainositol hafnium complexes was determined in aqueous, buffered solution at pH 7.4. The solution containing 5 mmol/L of the compound in a tightly sealed vessel was heated to 121° C. for 45 minutes in a steam autoclave. The hafnium concentration of the solution was determined by ICP-OES before and after heat treatment. The integrity of the compound was determined by HPLC analysis before and after heat treatment. Absolute stability was calculated as the ratio of the peak area of the compound after and before the heat treatment multiplied with the ratio of the metal concentration of the solution after and before heat treatment.
HPLC system: Column 1: Reversed phase C18.
Solvent A1: 0.5 mM tetrabutylammonium phosphate pH 6 Solvent A2: 0.1% formic acid in water Solvent B1: methanol Solvent B2: acetonitrile
The use of columns, solvents, flow rate and gradients is detailed in the table below. Detector: element specific detection by ICP-MS, running at m/z 180, the most abundant isotope of hafnium

| Substance | Stability [%] |
| --- | --- |
| Hydroxido-3κO-[μ3-3,3′,3″-({[1R-(1α,2α,3α,4α,5α,6α)]-2,4,6-trihydroxylato-1κ^2O^2O^6, 2κ^2O^2O^4,3κ^2O^4O^6-cyclohexane-1,3,5-triyl}tris{methylimino-1κN^1,2κN^3,3κN^5}) tri-propanoato-1κO,2κO′,3κO″][μ3-3,3′-({[1R-(1α,2α,3α,4α,5α,6α)]-2,4,6-trihydroxylato-1κ^2O^2O^6,2κ^2O^2O^4,3κ^2O^4O^6-5-[methylamino-3κN^5]cyclohexane-1,3-diyl}bis{methyl-imino-1κN^1,2κN^3})dipropanonato-1κO,2κO′]trihafnium (IV) [Example 1] | 100 |
| Bis[μ3-2,2′-({[1R-(1α,2α,3α,4α,5α,6α)]-5-[(2-carboxylato-3κO-ethyl)amino-3κN^5]-2,4,6-trihydroxylato-1κ^2O^2O^6,2κ^2O^2O^4,3κ^2O^4O^6-cyclohexane-1,3-diyl}diimino-1κN^1,2κN^3)di-acetato-1κO,2κO′]trihafnium(IV) [Example 10] | 101 |
| Bis[μ3-3,3′-({[1R-(1α,2α,3α,4α,5α,6α)]-2,4,6-trihydroxylato-1κ^2O^2O^6,2κ^2O^2O^4,3κ^2O^4O^6-5-[(2-hydroxylato-3κO-ethyl)amino-3κN^5]cyclohexane-1,3-diyl}diimino-1κN1,2κN^3)di-propanoato-1κO,2κO′]trihafnium (IV) [Example 3] | 100 |
| Bis[μ3-2,2′-({[1R-(1α,2α,3α,4α,5α,6α)]-2,4,6-trihydroxylato-1κ^2O^2O^6,2κ^2O^2O^4,3κ^2O^4O^6-5-[(2-hydroxylato-3κO-ethyl)amino-3κN^5]cyclohexane-1,3-diyl}diimino-1κN^1,2κN^3)di-acetato-1κO,2κO′]trihafnium (IV) [Example 8] | 100 |
| Bis[μ3-3,3′-({[1R-(1α,2α,3α,4α,5α,6α)]-5-[(2S,3R)(3,4-dihydroxy-2-hydroxylato-3κO-butyl)amino-3κN^5]-2,4,6-trihydroxylato-1κ^2O^2O^6,2κ^2O^2O^4,3κ^2O^4O^6-cyclohexane-1,3-diyl}diimino-1κN^1,2κN^3)dipropanoato-1κO,2κO′]trihafnium(IV) [Example 5] | 101 |
